Results taken from ChEMBL document CHEMBL3870346, “Development of a simple proton nuclear magnetic resonance-based procedure to estimate the approximate distribution coefficient at physiological pH (logD7.4): Evaluation and comparison to existing practices” (Bioorg Med Chem Lett, 2017).
Structures can show the parent of a compound that is named as a salt.

Tests used:
physchem [1] = settings: 1-octanol/D2O, pH 7.4
[2] = n-Octanol/water partition coefficient, log P of the compound by HPLC method
physchem [3] = settings: buffer, pH 7.4

SMILES | logD (physchem [1]) | logP ([2]; n-octanol/water) | logD (physchem [3]) | logP ([2]; octanol/water)
COC(=O)c1ccccc1 [METHYL BENZOATE] | 1.9 | – | – | –
Nc1ccc(Cl)cc1 [4-CHLOROANILINE] | 1.8 | – | – | –
CC(=O)Nc1ccc(O)cc1 [ACETAMINOPHEN] | 0.2 | – | – | –
c1ccc(Oc2ccccc2)cc1 | 3.5 | – | – | –
COc1ccc(O)cc1 [MEQUINOL] | 0.8 | 1.3 | 1.3 | –
CCOC(=O)c1ccccc1 [ETHYL BENZOATE] | 2.4 | – | – | –
CC(=O)c1ccccc1 [ACETOPHENONE] | 1.7 | – | – | –
O=[N+]([O-])c1ccccc1O [NITROPHENOLATE] | 1.5 | 1.8 | – | –
Oc1ccccc1 [PHENOL] | 1.2 | – | 1.3 | –
CC(=O)Nc1ccccc1 [ACETANILIDE] | 0.7 | – | 1.2 | 1
N#Cc1ccccc1 [BENZONITRILE] | 1.6 | 1.6 | – | –
Cc1ccc(CO)cc1 | 1.4 | 1.6 | 1.8 | –
c1ccc2ccccc2c1 | – | – | 3.4 | –
c1ccc2c(c1)ccc1ccccc12 | – | 4.5 | 4.5 | –
OCc1ccccc1 [BENZYL ALCOHOL] | 0.9 | – | – | –
c1ccc(-c2ccccc2)cc1 [BIPHENYL] | – | – | 4 | 4
COc1ccccc1 [ANISOLE] | 2.3 | – | 2.3 | –
Cc1ccc(O)cc1 [p-CRESOL] | 2 | – | 1.8 | 1.9
CCN(CC)CCOC(=O)c1ccc(N)cc1 [PROCAINE HYDROCHLORIDE] | -0.4 | – | – | –
Clc1ccccc1 [CHLOROBENZENE] | 2.6 | 2.8 | 2.9 | –
CCC(C)=O [BUTANONE] | 0.4 | 0.3 | 0.3 | –
